# Results from PMC8868346, “Novel Series of Dual NRF2 Inducers and Selective MAO-B Inhibitors for the Treatment of Parkinson’s Disease” (Antioxidants, 2022).
# Like-named read-outs stand apart in the source and are kept apart here.
# Assays:
# MAO-B [1] = details: cited from earlier work
# NRF2 = NRF2 induction, luciferase activity in AREc32 reporter cells; assay type: cell-based, human; details: Homo sapiens; AREc32 cells, 24 h; concentration required to double luciferase activity compared to basal; read-out: CD (µM) NRF2 Induction
# Description: Cells were used from the third to twelfth passage.
# AREc32 cells were stably transfected with the plasmid pGL-8xARE that implements 8 copies of the antioxidant response element (ARE) sequences followed by luciferase reporter gen. Therefore, NRF2 induction can be related to the activation of ARE sequences by measuring luciferase activity in terms of luminescence production. For NRF2 induction experiments, cells were plated in 96 white flat bottom well plates (20,000 cells/well). After 24 h, cells were incubated with selected compounds at the desired concentrations in duplicates for 24 h. The Luciferase Assay System (Promega E1500) was used according to provider protocol and luminescence was quantified in an Orion II microplate luminometer (Berthold, Germany). Fold induction of luciferase activity was normalized to basal conditions. Data were expressed as CD values, which means the concentration needed to duplicate the luciferase activity compared to basal conditions. CD values were calculated from dose–response curves fitted by non-linear regression for each compound after logarithmic transformation of the data using GraphPad Prism 8.0 software.
# IL-1β = IL-1β levels by ELISA in LPS stimulated primary mixed glial cultures; assay type: cell-based, rat; details: compound 10 μM; LPS 1 µg/mL 18 h
# Description: Cells were cultured for 7–10 days before treatment.
# Primary glial cells were pre-treated with compounds at the desired concentration for 24 h. Then, treatments were removed and glial cells were incubated with lipopolysaccharide (LPS, 1 μg/mL; Sigma–Aldrich, Spain) in the presence of each compound at the desired concentration for 18 h. Nitrite production was then assessed by modified Griess assay. Briefly, 150 µL of each sample was mixed with 75 µL of 4,4′-diamino-diphenylsulfone (Dapsone) and 75 µL of N-(1-naphthyl)ethylenediamine (Neda). The mixture was incubated at room temperature for 5 min. […] Data were normalized to basal conditions, setting this value as 100% of nitrite production. EC50 values were calculated from dose–response curves obtained from representing percentage of nitrites reduction vs. compound concentration.
# Supernatants obtained from mixed primary glial cell cultures were used to determine IL-1β levels by quantitative ELISA kits (Preprotech, R&D Systems-bioNova, Madrid, Spain) following the manufacturer’s instructions. Commercial solution of IL-1β was used to generate a standard curve for sample quantification. Absorbance was measured in a microplate reader SPECTROstar Nano (BMG Labtech) at 405 with 650 nm correction.
# SH-SY5Y cells [2] = experiment: Neuroprotection in SH-SY5Y against rotenone/oligomycin A (MTT); assay type: cell-based, human; details: compound 0.1 µM, 24 h pre- and 24 h co-incubation
# Description: (§1) Cells were seeded at a density of 60,000 cells/well in 96-well transparent plates for 24 h. Then cells were pre-incubated with the corresponding compound at 0.1 μM. After 24 h, the medium was removed and replaced with 1% (v/v) FBS media containing the corresponding compound at 0.1 µM and the selected toxic stimuli, namely a mixture of rotenone and oligomycin A (R/O; 30/10 μM, respectively; Sigma–Aldrich, Spain) or 6-hydroxydopamine (100 µM; Sigma–Aldrich, Spain). […].
# SH-SY5Y cells [3] = experiment: Neuroprotection in SH-SY5Y against 6-hydroxydopamine (MTT); assay type: cell-based, human; details: 6-OHDA 100 µM; compound 0.1 µM, 24 h pre- and 24 h co-incubation
# Description: as §1
# SH-SY5Y = details: human
# Description: They were recovered by centrifugation at 800 rpm for 10 min. Cells from the third to twelfth passage were seeded at a density of 80,000 cells/well in 96-well plates for the neuroprotection studies.
# (§2) Basal absorbance was set to 100% and results were normalized to basal conditions.
# (§3) Cytotoxicity. LD50 values in several cell cultures employed
# (§4) Table S2. Cytotoxicity elicited by 10-18 compounds in SH-SY5Y, AREc32 and mixed pr imary glial cultures. Viability was measured as MTT reduction in presence of increasing concentrations of der ivatives. LD50 values were calcula ted from dose-response curves. Data are expr essed as mean ± SEM of at least 3 independent experiments.
# (§5) 1.3. PAMPA control compounds (BBB permeability)
# (§6) Table S3. Pr ediction of the BBB passive permeability of control compounds
# AREc32 = system: AREc32
# Description: AREc32 cells, shared by CR Wolf, were grown in Dulbecco’s modified Eagle medium (DMEM) with GlutaMAX (Gibco, Invitrogen, Madrid, Spain), supplemented with 10% (v/v) filtrated fetal bovine serum (FBS; Gibco, Invitrogen, Madrid, Spain), 1% of antibiotics penicillin-streptomycin, and geneticin (0.8 mg/mL G418; Gibco, Invitrogen, Madrid, Spain). […] They were recovered by centrifugation at 800 rpm for 10 min. Cells were used from the third to twelfth passage.
# as §2, §3, §4, §5, §6
# [4] = system: Mixed primary glial cultures; experiment: Cytotoxicity in mixed primary glial cultures (MTT); details: Sprague-Dawley, rat
# Description: Mixed primary glial cultures were obtained from cerebral cortex of 2–5-day-old Sprague–Dawley rats. Blood vessels and meninges were first removed in Hank’s balanced salt solution (HBSS) and then forebrains were dissociated in DMEM/F12 medium. After mechanical dissociation, filtering, and centrifugation at 800 rpm for 10 min, cells were plated at a density of 30,000 cells/well in DMEM/F12 medium with 20% (v/v) FBS and 1% penicillin/streptomycin (10,000 units). […] After 5 days, medium was substituted by DMEM/F12 medium with 10% (v/v) FBS. Cells were cultured for 7–10 days before treatment.
# as §2, §3, §4, §5, §6
# rat striatal slices = experiment: Rat striatal slices exposed to rotenone: ROS production; assay type: cell-based; details: compound 10 µM, rotenone 10 µM, 4 h
# Description: Three- to four-month-old Sprague–Dawley rats were decapitated, the brain was removed, and the two brain hemispheres were separated. Each hemisphere was then cut into 300-µm coronal slices using a McIlwain Tissue Chopper (Cavey Laboratory Engineering, Surrey, UK) and separated in a previously oxygenated (95% O2 and 5% CO2) ice-cold Krebs’s dissection buffer (120 mM of NaCl; 2 mM of KCl; 26 mM of NaHCO3; 1.18 mM of KH2PO4; 10 mM of MgSO4; 0.5 mM of CaCl2; 11 mM of glucose; and 200 mM sucrose at pH 7.4) using a Leica SE6 microscope (Leica, Madrid, Spain). Striatum-containing slices were selected and immediately incubated for stabilization in dissection buffer without sucrose, bubbled with 95% O2 and 5% CO2 for 45 min at 34 °C, allowing slices to recover from slicing injury. […] Finally, cell death and the ROS production were measured.
# ROS quantification was performed using the fluorescent probe 2,7′-dichlorodihydrofluorescein diacetate (H2DCFDA, λEx/Em = 495/529 nm; Thermo Fisher, Madrid, Spain). Cell death quantification was performed using the fluorescent probe propidium iodide (PI, λEx/Em = 535/617 nm; Thermo Fisher, Madrid, Spain). […] Fluorescence from striatum slices was then recorded for H2DCFDA (λEx/Em = 495/529 nm), PI (λEx/Em = 535/617 nm), and Hoechst (λEx/Em = 350/461 nm), in an inverted Nikon Eclipse T2000-U microscope (Nikon, Tokyo, Japan). […]
# [5] = Oxygen radical absorbance capacity (ORAC) assay; details: Trolox equivalents, AAPH, fluorescein
# Description: The ORAC test was performed to evaluate the oxygen free radical scavenger capacity of the compounds. […] Compounds at desired concentrations (0.03, 0.1, 0.3, 1, 3, and 10 µM) were diluted in phosphate-buffered saline (PBS; 10 mM, pH 7.4) at 37 °C and placed in a 96 black flat bottom well plate. […] A fluorescence measurement was done first to determine the basal signal. Then, 25 µL of 2, 2′-azobis-amidinopropane dihydrochloride (AAPH) (12 mM final concentration) was quickly added. All samples were measured in duplicates in three different experiments. […] Results were expressed in terms of Trolox equivalents (T.eq.), obtained by plotting net AUC versus compound concentration, then performing linear regression and normalizing slopes of the compounds considering Trolox as reference.
# MAO-B [6] = biological target: T1, MAO-B (Homo sapiens, UniProt P27338); experiment: MAO-B reversibility assay (pre-incubation times); assay type: biochemical; details: 0, 15, 30 min pre-incubation at […] IC50
# T1 construct: purchased Sigma–Aldrich
# T1 sequence (P27338 1-520): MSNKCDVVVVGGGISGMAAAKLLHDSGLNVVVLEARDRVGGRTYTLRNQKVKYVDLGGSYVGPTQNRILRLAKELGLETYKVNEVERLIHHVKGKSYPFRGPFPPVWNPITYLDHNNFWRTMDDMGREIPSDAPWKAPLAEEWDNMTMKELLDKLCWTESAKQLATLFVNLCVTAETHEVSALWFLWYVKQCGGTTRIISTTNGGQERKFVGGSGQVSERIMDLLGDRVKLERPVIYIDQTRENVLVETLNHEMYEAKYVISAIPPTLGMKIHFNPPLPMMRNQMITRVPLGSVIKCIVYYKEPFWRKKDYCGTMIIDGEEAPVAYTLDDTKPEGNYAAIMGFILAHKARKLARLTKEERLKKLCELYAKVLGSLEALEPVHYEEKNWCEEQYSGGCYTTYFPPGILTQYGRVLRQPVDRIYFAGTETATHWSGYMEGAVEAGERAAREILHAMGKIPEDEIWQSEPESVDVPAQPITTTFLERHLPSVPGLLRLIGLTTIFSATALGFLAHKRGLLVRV
# MAO-B [7] = details: read-out: IC50 for MAO-B; cited from earlier work
# MAO-A = details: read-out: IC50 for MAO-A; cited from earlier work
# [8] = Blood–brain barrier permeation assay (PAMPA); details: BBB permeability class from Pe
# [9] = system: blood-brain barrier (passive diffusion); experiment: Blood–brain barrier permeation assay (PAMPA); details: PAMPA, pH 7.4
# [10] = system: nitrite production in mixed primary glial cultures; details: read-out: EC50 Nitrite Reduction; positive control; cited from earlier work
structure (smiles),measurement,setting,value
"C(=CCc1ccccc1)Cc1ccccc1 [1,4-diphenyl-2-butene]",Ki,MAO-B [1],35000 nM
"COc1ccc2[nH]cc(CCNC(C)=O)c2c1 [Melatonin, reference compound]",EC50,NRF2,> 30 µM
same,IL-1β Levels % Reduction (10 μM),IL-1β,31.6 ± 7.00%
same,R/O (30/10 µM) Protection (%),SH-SY5Y cells [2],22.3%
same,6-OHDA Protection (%),SH-SY5Y cells [3],88.8%
same,LD50 (µM) SH-SY5Y,SH-SY5Y,> 100 µM
same,LD50 (µM) AREc32,AREc32; human,> 30 µM
same,LD50 (µM) Mixed primary glial cultures,[4],> 30 µM
same,"ROS levels (H2DCFDA), rotenone model",rat striatal slices,reduced
"C#CCN[C@@H]1CCc2ccccc21 [Rasagiline, reference compound]",ORAC (T. eq.),[5],0.04 ± 0.02 T. eq.
same,ORAC (T. eq.),[5]; listed as rasagiline,no effect
same,R/O (30/10 µM) Protection (%),SH-SY5Y cells [2],28.9%
same,6-OHDA Protection (%),SH-SY5Y cells [3],77.0%
same,LD50 (µM) AREc32,AREc32; MTT reduction,> 30 µM
same,MAO-B inhibition reversibility,MAO-B [6],Irreversible
same,PAMPA Prediction,[8],CNS + (CNS + (high BBB permeability): Pe (10^−6 cm s^−1) > 4.0)
same,"Papp at 4 h, 100 µM",[9],23.5 ± 4.2 ×10⁻⁶ cm/s
C[S+]([O-])CCCCN=C=S (centres unmarked) [Sulforaphane],EC50,[10],1400 ± 300 nM
